Assay: Solubility
Type: physicochemical
[1] = Benzene, hexane and ether, crystals of Example 1
[2] = Benzene, hexane and ether, crystals of Example 2 (pure)
[3] = Chloroform, ethyl acetate, methanol and acetone, crystals of Example 1
[4] = Chloroform, ethyl acetate, methanol and acetone, crystals of Example 2 (pure)
[5] = water, crystals of Example 2 (pure)

| Structure (SMILES) | Solubility [1] | Solubility [2] | Solubility [3] | Solubility [4] | Solubility (water, crystals of Example 1) | Solubility [5] |
| --- | --- | --- | --- | --- | --- | --- |
| CCCC/C=C/C=C/C=C/C=NN=NO [FR-900184] | Sparingly soluble | Sparingly soluble | Soluble | Soluble | Insoluble | Insoluble |
| CCC/C=C/C/C=C/C=C/C=NN=NO [FR-900190] | Sparingly soluble | Sparingly soluble | Soluble | Soluble | Insoluble | Insoluble |

Reference: patent US4297096A, “Alkyl, alkenyl, and aryl substituted triazene compounds, their salts and production thereof” (Fujisawa Pharmaceutical Co. Ltd., priority 1980, dated 1981)
